± gives the expanded uncertainty stated by the source.
Assay: mn = molality of the nth substance listed, in mol/kg
Details: 99.6 kPa, Liquid; for viscosity: Capillary tube (Ostwald / Ubbelohde) method; for mass density: Vibrating tube method

CNC(C)=O [N-methylacetamide] + [Cl-].[Cl-].[Zn+2]
Details | mass density, 308.15 K [kg/m3] | mass density, 313.15 K [kg/m3] | mass density, 318.15 K [kg/m3] | mass density, 323.15 K [kg/m3] | mass density, 328.15 K [kg/m3] | viscosity, 308.15 K [mPa·s] | viscosity, 313.15 K [mPa·s] | viscosity, 318.15 K [mPa·s] | viscosity, 323.15 K [mPa·s] | viscosity, 328.15 K [mPa·s]
m2 = 0 | 946.01 ± 1.9 | 941.81 ± 1.9 | 937.59 ± 1.9 | 933.36 ± 1.9 | 929.17 ± 1.9 | 3.57 ± 0.044 | 3.152 ± 0.039 | 2.8 ± 0.035 | 2.496 ± 0.031 | 2.245 ± 0.028
m2 = 0.01212 | 947.01 ± 1.9 | 942.99 ± 1.9 | 938.78 ± 1.9 | 934.4 ± 1.9 | 930.23 ± 1.9 | 3.595 ± 0.044 | 3.169 ± 0.039 | 2.819 ± 0.035 | 2.512 ± 0.031 | 2.26 ± 0.028
m2 = 0.02085 | 948.03 ± 1.9 | 943.83 ± 1.9 | 939.63 ± 1.9 | 935.24 ± 1.9 | 931.05 ± 1.9 | 3.615 ± 0.044 | 3.186 ± 0.039 | 2.834 ± 0.035 | 2.528 ± 0.031 | 2.271 ± 0.028
m2 = 0.04092 | 949.55 ± 1.9 | 945.27 ± 1.9 | 941.06 ± 1.9 | 936.82 ± 1.9 | 932.75 ± 1.9 | 3.653 ± 0.045 | 3.223 ± 0.04 | 2.868 ± 0.035 | 2.558 ± 0.032 | 2.296 ± 0.028
m2 = 0.04735 | 950.23 ± 1.9 | 946.04 ± 1.9 | 941.77 ± 1.9 | 937.56 ± 1.9 | 933.2 ± 1.9 | 3.669 ± 0.045 | 3.232 ± 0.04 | 2.876 ± 0.035 | 2.566 ± 0.032 | 2.304 ± 0.028
m2 = 0.05898 | 951.13 ± 1.9 | 946.91 ± 1.9 | 942.72 ± 1.9 | 938.63 ± 1.9 | 934.26 ± 1.9 | 3.698 ± 0.045 | 3.255 ± 0.04 | 2.895 ± 0.036 | 2.584 ± 0.032 | 2.319 ± 0.029
m2 = 0.06108 | 951.43 ± 1.9 | 947.18 ± 1.9 | 942.96 ± 1.9 | 938.78 ± 1.9 | 934.52 ± 1.9 | 3.703 ± 0.045 | 3.262 ± 0.04 | 2.9 ± 0.036 | 2.586 ± 0.032 | 2.322 ± 0.029
m2 = 0.07786 | 952.85 ± 1.9 | 948.65 ± 1.9 | 944.45 ± 1.9 | 940.25 ± 1.9 | 935.97 ± 1.9 | 3.743 ± 0.046 | 3.293 ± 0.04 | 2.928 ± 0.036 | 2.612 ± 0.032 | 2.344 ± 0.029
m2 = 0.09351 | 954.27 ± 1.9 | 949.99 ± 1.9 | 945.73 ± 1.9 | 941.52 ± 1.9 | 937.33 ± 1.9 | 3.778 ± 0.046 | 3.324 ± 0.041 | 2.955 ± 0.036 | 2.635 ± 0.032 | 2.364 ± 0.029
m2 = 0.1025 | 955.14 ± 1.9 | 950.92 ± 1.9 | 946.63 ± 1.9 | 942.41 ± 1.9 | 938.12 ± 1.9 | 3.797 ± 0.047 | 3.347 ± 0.041 | 2.972 ± 0.037 | 2.652 ± 0.033 | 2.378 ± 0.029
m2 = 0.1083 | 955.59 ± 1.9 | 951.41 ± 1.9 | 947.14 ± 1.9 | 942.93 ± 1.9 | 938.6 ± 1.9 | 3.81 ± 0.047 | 3.354 ± 0.041 | 2.982 ± 0.037 | 2.659 ± 0.033 | 2.384 ± 0.029
m2 = 0.1702 | 961.31 ± 1.9 | 957.1 ± 1.9 | 952.84 ± 1.9 | 948.64 ± 1.9 | 944.4 ± 1.9 | 3.964 ± 0.049 | 3.495 ± 0.043 | 3.099 ± 0.038 | 2.765 ± 0.034 | 2.475 ± 0.03
m2 = 0.2236 | 966.13 ± 1.9 | 961.88 ± 1.9 | 957.61 ± 1.9 | 953.37 ± 1.9 | 949.14 ± 1.9 | 4.112 ± 0.05 | 3.611 ± 0.044 | 3.202 ± 0.039 | 2.854 ± 0.035 | 2.553 ± 0.031
m2 = 0.372 | 979.32 ± 2 | 975.11 ± 2 | 970.87 ± 1.9 | 966.57 ± 1.9 | 962.36 ± 1.9 | 4.544 ± 0.055 | 3.97 ± 0.048 | 3.516 ± 0.043 | 3.132 ± 0.038 | 2.795 ± 0.034
m2 = 0.6919 | 1007.77 ± 2 | 1003.5 ± 2 | 999.23 ± 2 | 994.92 ± 2 | 990.69 ± 2 | 5.686 ± 0.069 | 4.929 ± 0.06 | 4.32 ± 0.052 | 3.82 ± 0.046 | 3.381 ± 0.041
m2 = 1.299 | 1060.68 ± 2.1 | 1056.36 ± 2.1 | 1052 ± 2.1 | 1047.7 ± 2.1 | 1043.43 ± 2.1 | 8.811 ± 0.1 | 7.487 ± 0.089 | 6.416 ± 0.076 | 5.603 ± 0.067 | 4.9 ± 0.059

Source: the NIST ThermoML archive (doi:10.1021/acs.jced.8b00399)
